Drawing on ChEMBL document CHEMBL4699533, “Compounds from Toddalia asiatica: Immunosuppressant Activity and Absolute Configurations” (J Nat Prod, 2020), this text covers inhibition, IC50 and Activity for 14 compounds.

Activity calls are given as the source filed them. No cut-off for these calls is given here.

The test system of data set [1] is T cell. The data set can be described thus: Inhibition of anti-human CD3/CD28/mAbs-stimulated human T-cell proliferation at 30 uM after 72 hrs by CFSE staining based flow cytometric analysis. It counts as functional, tissue-based. Background: Flow cytometry measures light scatter and fluorescence of single cells or particles in a stream.
Data set [2] has as its system T cell. Description: (§1) Inhibition of anti-human CD3/CD28/mAbs-stimulated human T-cell proliferation after 72 hrs by CFSE staining based flow cytometric analysis. The data set is classed as functional, tissue-based.
Data set [3] in a line: as §1. It counts as functional, tissue-based.
Data set [4] in a line: Cytotoxicity against human T-cell assessed reduction in cell viability at 10 uM after 72 hrs. The data set is classed as tissue-based.
The nature of data set [5]: Cytotoxicity against human T-cell assessed reduction in cell viability at 30 uM after 72 hrs. It counts as tissue-based.

Turning to `COc1cc2oc(=O)ccc2c(OC)c1CC(O[C@@H]1O[C@H](CO)[C@@H](O)[C@H](O)[C@H]1O)C(C)(C)O` (some centres undefined), the inhibition result in data set [1] was “Active”.

With `COc1ccc([C@@H]2CC(=O)c3c(O)cc(O[C@@H]4O[C@H](CO[C@@H]5O[C@@H](C)[C@H](O)[C@@H](O)[C@H]5O)[C@@H](O)[C@H](O)[C@H]4O)cc3O2)cc1O`, the inhibition entry in data set [1] is “Active”.

As to `COc1ccc2c(c1OC)CN(C)CCc1cc3c(cc1C(=O)C2)OCO3`, the inhibition result in data set [1] is “Active”. Turning to `O=C(/C=C/c1ccc(O)cc1)NCCc1ccc(O)cc1`, the inhibition entry in data set [1] was “Active”.

For the compound `COc1cc(O)c(CCC(=O)O)c(OC)c1CC(O)C(C)(C)O` (centres undefined), the inhibition result in data set [1] is “Active”.

In the case of `COc1cc2oc(=O)ccc2c(OC)c1C[C@@H](O)C(C)(C)O[C@@H]1O[C@H](CO)[C@@H](O)[C@H](O)[C@H]1O`, the inhibition entry in data set [1] was “Active”. Regarding `COc1cc(C(=O)O)cc(OC)c1O`, the inhibition entry in data set [1] was “Active”. Still for that read-out and setting: next, `COc1cc2oc(=O)ccc2c(OC)c1C(=O)O`: “Active”.

As usually defined, the IC50 is the concentration that inhibits the measured activity by half. A lower IC50 goes with inhibition by little substance. With `COc1cc2c[n+](C)c3c4cc5c(cc4ccc3c2cc1OC)OCO5.[Cl-]` [NITIDINE CHLORIDE], the inhibition result in data set [2] was “Dose-dependent effect”. In data set [3], this compound showed an IC50 of 0.4 µM. Also, the Activity entry in data set [4] and in data set [5] was “Toxic” in each case. For the compound `COc1cc(/C=C/C(=O)OC[C@H]2O[C@@H](OC[C@@H](Cc3cc(OC)c(O)c(OC)c3)[C@@H](CO)Cc3cc(OC)c(O)c(OC)c3)[C@H](O)[C@@H](O)[C@@H]2O)cc(OC)c1O`, the inhibition entry in data set [1] was “Active”. The same measure, in the same setting: next, `COc1cc2oc(=O)ccc2c(OC)c1C[C@H](O)C(C)(C)O[C@@H]1O[C@H](CO)[C@@H](O)[C@H](O)[C@H]1O`: “Active”. Regarding `COc1cc(/C=C/C(=O)OC[C@H]2O[C@@H](OC[C@H]3[C@H](CO)Cc4cc(OC)c(O)c(OC)c4[C@@H]3c3cc(OC)c(O)c(OC)c3)[C@H](O)[C@@H](O)[C@@H]2O)cc(OC)c1O`, the inhibition result in data set [1] was “Active”. In the case of `COc1cc2c(cc1OC)-c1ccc3cc4c(cc3c1N(C)C2)OCO4`, the inhibition result in data set [2] was “Dose-dependent effect”. The same compound returned a concentration for half-maximal inhibition (IC50) in data set [3] of 6.7 µM. Moreover, the Activity entry in data set [5] was “Toxic”. For the compound `COc1cc2oc(=O)ccc2c(OC)c1CC(O)C(C)(C)O` (centres undefined), the inhibition result in data set [1] is “Active”.
